Source: patent US20040063906A1, “Pna analogues” (priority 2000, published 2004)
{LysNH2} = C-terminal lysine amide

Columns and labels:
[1] = test system: complementary DNA oligomers; experiment: Melting temperature (Tm) with complementary DNA oligomer, Table 1; type: binding; conditions: medium salt buffer: 100 mM NaCl, 10 mM phosphate, 0.1 mM EDTA, pH 7.0; heating rate 1 K/min; UV 254 nm
Description: (§1) Binding affinity. The binding affinity towards complementary RNA and DNA oligomers was measured by obtaining the Tm-curves (Table 1). As expected, incorporation of both the pyrrolidinone and the pyrrolidine analogue into the PNA strand results in destabilization against DNA and RNA compared to unmodified PNA (entry 1 vs. 2 and 3).

[2] = test system: complementary RNA oligomers; experiment: Melting temperature (Tm) with complementary RNA oligomer, Table 1; type: binding; conditions: medium salt buffer: 100 mM NaCl, 10 mM phosphate, 0.1 mM EDTA, pH 7.0; heating rate 1 K/min; UV 254 nm
Description: as §1

poly A = experiment: Thermal denaturation (Tm) with poly A; type: binding; conditions: for Melting temperature (Tm), Poly A: measured from 10 to 90 °C, medium salt buffer, pH 7.0, 0.5 K/min; for Melting temperature (Tm), Poly A, measured from 90 to 10 °C: value in parentheses
Description: (§2) Binding. The binding of PNA 1164 and PNA 2121 to poly dA and poly A was studied by thermal denaturation (Tm, Table 4). Also listed are the values given by Hickman et. al. (29) The thermal stability results presented in Table 4 clearly indicate that a T5-PNA-oligomer having (2R, 4S)-pyrrolidine backbone (PNA 2121) forms stronger complexes with both poly dA and poly A as compared to the (2R, 4R)-pyrrolidine isomer (entry 3) and also compared to the parent aminoethylglycine PNA (PNA 1164, entry 1). These complexes are ascribed to triplexes and further studies on (pyrimidine-purine mixed sequences) pyrrolidine PNAs are required to establish whether the present results can be extended to duplex structures and are generally valid. Such studies are now in progress.

poly dA = experiment: Thermal denaturation (Tm) with poly dA; type: binding; conditions: for Melting temperature (Tm), Poly dA: measured from 10 to 90 °C, medium salt buffer, pH 7.0, 0.5 K/min; for Melting temperature (Tm), Poly dA, measured from 90 to 10 °C: value in parentheses
Description: as §2

[3] = test system: DNA target 5′-d(TTT-TXT-TTT-T)-3′, X = G; experiment: Melting temperature (Tm) with mismatch DNA target, X = G; type: binding; conditions: Table 3; for Melting temperature (Tm), X = G: heating curve, medium salt buffer, pH 7.0; for Melting temperature (Tm), X = G, cooling curve: value in parentheses = cooling curve
Description: (§3) The complex between PNA 2110 and DNA was further evaluated.

5′-d(T)10 = experiment: Melting temperature (Tm) with 5′-d(T)10; type: binding; conditions: for Melting temperature (Tm), 5′-d(T)10 / Melting temperature (Tm), 5′-d(T)10, cooling curve: Table 2; for Melting temperature (Tm), 5′-d(T)10 / Melting temperature (Tm), X = T: heating curve; for Melting temperature (Tm), 5′-d(T)10 / Melting temperature (Tm), 5′-d(T)10, cooling curve / Melting temperature (Tm), X = T: medium salt buffer, pH 7.0; for Melting temperature (Tm), 5′-d(T)10: 1 K/min; for Melting temperature (Tm), 5′-d(T)10, cooling curve / Melting temperature (Tm), X = T, cooling curve: value in parentheses = cooling curve; for Melting temperature (Tm), X = T / Melting temperature (Tm), X = T, cooling curve: Table 3, DNA target 5′-d(TTT-TXT-TTT-T)-3′
[4] = test system: DNA target 5′-d(TTT-TXT-TTT-T)-3′, X = C; experiment: Melting temperature (Tm) with mismatch DNA target, X = C; type: binding; conditions: Table 3; for Melting temperature (Tm), X = C: heating curve, medium salt buffer, pH 7.0; for Melting temperature (Tm), X = C, cooling curve: value in parentheses = cooling curve
Description: as §3

5′-r(U)10 [5] = experiment: Melting temperature (Tm) with 5′-r(U)10; type: binding; conditions: for Melting temperature (Tm), 5′-r(U)10 / Melting temperature (Tm), 5′-r(U)10, cooling curve: Table 2, medium salt buffer, pH 7.0; for Melting temperature (Tm), 5′-r(U)10: heating curve, 1 K/min; for Melting temperature (Tm), 5′-r(U)10, cooling curve: value in parentheses = cooling curve
[6] = test system: DNA target 5′-d(TTT-TXT-TTT-T)-3′, X = A; experiment: Melting temperature (Tm) with mismatch DNA target, X = A; type: binding; conditions: Table 3
Description: as §3

[7] = test system: DNA antiparallel: 5′-dAGA GTA TGA GTA-3′; experiment: Thermal stability (Tm) of complex with antiparallel DNA; type: binding; conditions: pH 7.0; for Tm, DNA antiparallel, down: medium salt buffer
Description: (§4) The binding properties of pyr-PNA oligomer consisting of 10 monomers of the following sequence: H-CTC ATA CTC T-Lys-NH2 were investigated by measuring the thermal stability of the complexes formed with sequence complementary DNA and RNA, respectively, as compared to the stability for the corresponding aeg-PNA oligomer.
(§5) The stability expressed as the melting temperature (Tm), defined as the temperature at which 50% of the complexes have been dissociated, was determined as described by Arghya Ray et al (32).
(§6) Measured in medium salt buffer: 100 mM NaCl, 10 mM Na-phosphate, 0.1 mM EDTA, pH=7.0.

[8] = test system: DNA parallel: 5′-dATG AGT ATG AGA-3′; experiment: Thermal stability (Tm) of complex with parallel DNA; type: binding; conditions: medium salt buffer, pH 7.0
Description: as §4, §5, §6

[9] = test system: RNA antiparallel: 5′-AGA GUA UGA GUA-3′; experiment: Thermal stability (Tm) of complex with antiparallel RNA; type: binding; conditions: medium salt buffer, pH 7.0
Description: as §4, §5, §6

5′-r(U)10 [10] = conditions: earlier work (17); cited from earlier work
[11] = as opposed to the parent PNA 186
[12] = compared with PNA 186 (Table 2, entry 1 and 3)
[13] = melting curves at pH 9 (not shown)

H-TAC-TCA#-TAC-TCT-LysNH2 [PNA 2104]
Melting temperature (Tm), DNA [1]: 28.5 °C | Melting temperature (Tm), RNA [2]: 44.5 °C

H-(T)5-LysNH2 [PNA 1164, reference compound]
Melting temperature (Tm), Poly A (poly A): 64.0 °C | Melting temperature (Tm), Poly A, measured from 90 to 10 °C (poly A): 58.5 °C | Melting temperature (Tm), Poly dA (poly dA): 53.0 °C | Melting temperature (Tm), Poly dA, measured from 90 to 10 °C (poly dA): 45.5 °C

H-(A#)10-LysNH2 [PNA 2110]
Melting temperature (Tm), X = G [3]: 68.5 °C | Melting temperature (Tm), X = G, cooling curve [3]: 37.0 °C | Melting temperature (Tm), 5′-d(T)10 (5′-d(T)10): 79.0 °C | Melting temperature (Tm), 5′-d(T)10, cooling curve (5′-d(T)10): 41.0 °C | Melting temperature (Tm), X = T (5′-d(T)10): 79.0 °C | Melting temperature (Tm), X = T, cooling curve (5′-d(T)10): (41.0) °C | Hysteresis of melting curves against DNA (5′-d(T)10; [11]): significant hysteresis was detected | ΔTm/mod towards DNA (5′-d(T)10; [12]): +2.5 °C | Recognition of 5′-d(T)10 (sequence specificity) (5′-d(T)10; from mismatch Tm values of Table 3): sequence specific | Lowering of Tm at pH 9 instead of pH 7, against DNA (5′-d(T)10; [13]): about 3.5 °C | Melting temperature (Tm), X = C [4]: 71.0 °C | Melting temperature (Tm), X = C, cooling curve [4]: 36.0 °C | Melting temperature (Tm), 5′-r(U)10 (5′-r(U)10 [5]): 60.0 °C | Melting temperature (Tm), 5′-r(U)10, cooling curve (5′-r(U)10 [5]): 45.5 °C | Hysteresis of melting curves against RNA (5′-r(U)10 [5]; [11]): significant hysteresis was detected | ΔTm/mod towards RNA (5′-r(U)10 [5]; [12]): +2.5 °C | Lowering of Tm at pH 9 instead of pH 7, against RNA (5′-r(U)10 [5]; [13]): ~1.5 °C | Melting temperature (Tm), X = A ([6]; heating curve, medium salt buffer, pH 7.0): 67.5 °C | Melting temperature (Tm), X = A, cooling curve ([6]; value in parentheses = cooling curve): 35.5 °C

H-(T#)5-LysNH2 [PNA 2121]
Melting temperature (Tm), Poly A (poly A): 79.0 °C | Melting temperature (Tm), Poly A, measured from 90 to 10 °C (poly A): 51.5 °C | Melting temperature (Tm), Poly dA (poly dA): 78.5 °C | Melting temperature (Tm), Poly dA, measured from 90 to 10 °C (poly dA): 44.0 °C

H-TAC-TCA*-TAC-TCT-LysNH2 (TACTCATACTCT; chemistry not fully specified) [PNA 2075, PNA dodecamer with one A* = (3S, 5R) pyrrolidone PNA monomer]
Melting temperature (Tm), DNA [1]: 41.0 °C | Melting temperature (Tm), RNA [2]: 53.8 °C

H-Gly-(A)10-NH2 [PNA 186, reference compound]
Melting temperature (Tm), X = G [3]: 40.5 (40.5) °C | Melting temperature (Tm), X = G, cooling curve [3]: 40.5 (40.5) °C | Melting temperature (Tm), 5′-d(T)10 (5′-d(T)10): 55.5 (55.5) °C | Melting temperature (Tm), 5′-d(T)10, cooling curve (5′-d(T)10): 55.5 (55.5) °C | Melting temperature (Tm), X = T (5′-d(T)10): 55.5 °C | Melting temperature (Tm), X = T, cooling curve (5′-d(T)10): (55.5) °C | Melting temperature (Tm), X = C [4]: 36.5 (36.5) °C | Melting temperature (Tm), X = C, cooling curve [4]: 36.5 (36.5) °C | Melting temperature (Tm), 5′-r(U)10 (5′-r(U)10 [5]): 35.5 (35.5) °C | Melting temperature (Tm), 5′-r(U)10, cooling curve (5′-r(U)10 [5]): 35.5 (35.5) °C

H-TAC-TCA-TAC-TCT-LysNH2 (TACTCATACTCT; all peptide nucleic acid (PNA), 3' {LysNH2}) [PNA 2005, unmodified PNA dodecamer]
Melting temperature (Tm), DNA [1]: 49.5 °C | Melting temperature (Tm), RNA [2]: 59.5 °C

H-CTC ATA CTC T-Lys-NH2 [PNA 2244] (CTCATACTCT; all peptide nucleic acid (PNA), 3' {LysNH2}) [aeg PNA oligomer of 10 monomers, reference compound]
Tm, DNA antiparallel, down [7]: (43.0°) °C | Tm, DNA antiparallel, up ([7]; medium salt buffer: 100 mM NaCl, 10 mM Na-phosphate, 0.1 mM EDTA): 45.0° °C | Tm, DNA parallel, down [8]: (43.5°) °C | Tm, DNA parallel, up [8]: 44.0° °C

H-CTC ATA CTC T-Lys-NH2 [PNA 2232] (CTCATACTCT; all peptide nucleic acid (PNA), 3' {LysNH2}; further chemistry not fully specified) [pyr PNA oligomer of 10 monomers]
Tm, DNA antiparallel, down [7]: (58.0°) °C | Tm, RNA antiparallel, down [9]: (41.0°) °C | Tm, DNA parallel, down [8]: (61.5°) °C

H-(A*)10-LysNH2 [PNA 2020, reference compound]
Tm depression per modification as compared to unmodified PNA against r(U)10 (5′-r(U)10 [10]): 1 °C | Melting temperature (Tm), 5′-r(U)10 (5′-r(U)10 [5]): 25.5 °C
